Test results: patent publication US11459325B2, “Heterocyclic compound” (Takeda Pharmaceutical Company Limited, priority 2018, dated 2022)

Each compound was assayed on GBA mutant human fibroblasts GM008760 (assay: Glucosylceramide lowering assay). Conditions: 10 μM test compound, 4 days culture; GlcCer (C16:0)/Cer (C16:0) molar ratio of test compound group relative to DMSO control group x100; smaller value = glucosylceramide lowering.
Assay type: cell-based
Description: Glucosylceramide Lowering Assay
Using GBA mutant human fibroblasts containing mutated glucosylceramidase, the effect of test compounds on glucosylceramide reduction was evaluated.
GBA mutant human fibroblasts GM008760 (Coriel Institute) were seeded in a 96-well multiwell plate at a density of 5,000 cells/100 μL culture solution/well. GlutaMAX (Thermo Fishcer Scientific), penicillin-streptomycin, and Minimum Essential Media (Thermo Fishcer Scientific) supplemented with 15% fetal bovine serum were used as a culture solution. After culturing for 2 days, a 10 mM DMSO solution of the test compound diluted with the culture solution was added to a 96-well plate by 100 μL to adjust a final test compound concentration to 10 μM. After culturing the cells for 4 days in the presence of the test compound, the culture solution was removed, and the cells adhered to the 96-well plate were washed with a phosphate buffer (ThermoFisher Scientific, product number 14190-144). A solvent composed of 50% ethanol and 50% isopropanol was added to the 96-well plate by 100 μL, and the intracellular lipids were dissolved by pipetting. A solution prepared by dissolving N-Octadecanoyl-D35-psychosine (50 ng/mL, Matreya LLC Inc.) as an internal standard in 50% ethanol and 50% isopropanol was added to the sample in an equal volume, and 2.5 μL of the centrifuged supernatant was used as the test compound group.
In the same manner as above, a control group was prepared by using DMSO instead of the 10 mM DMSO solution of the test compound.
For the test compound group and the control group, molar concentrations of glucosylceramide [GlcCer (C16:0)] and ceramide [Cer (C16:0)] were quantified using Rapidfire-MS/MS (API-5000, Turbo-ESI, SRM), and the glucosylceramide lowering effect of the test compound group relative to the control group was evaluated by the following formula. (GlcCer/Cer of test compound group)/(GlcCer/Cer of control group)×100 wherein GlcCer/Cer is the ratio of the molar concentration of glucosylceramide to that of ceramide.
In this test, when the numerical value obtained by the above calculation formula is small, glucosylceramide is metabolized to ceramide by the test compound, or the synthesis of glucosylceramide from ceramide is inhibited by the test compound, that is, it can be said that the test compound has a glucosylceramide lowering effect.

SMILES	10 μM GlcCer/Cer (% of control)
Cc1cn(C)c(=O)c2c(C(=O)N3CC4CC4(c4ccc(Cl)cc4)C3)cn(C)c12 (stereo not drawn) [Example 265, 3-((1-(4-chlorophenyl)-3-azabicyclo[3.1.0]hex-3-yl)carbonyl)-1,5,7-trimethyl-1,5-dihydro-4H-pyrrolo[3,2-c]pyridin-4-one]	34 % of control
Cc1cn(C)c(=O)c2c(C(=O)N3CC4CC4(c4ccc(OC(F)(F)F)cc4)C3)cnn12 (stereo not drawn) [Example 305, 5,7-dimethyl-3-((1-(4-(trifluoromethoxy)phenyl)-3-azabicyclo[3.1.0]hex-3-yl)carbonyl)pyrazolo[1,5-a]pyrazin-4(5H)-one]	47 % of control

Same assay, conditions: Homo sapiens, Fibroblast, 96 h; 10 μM test compound, 4 days culture; GlcCer (C16:0)/Cer (C16:0) molar ratio of test compound group relative to DMSO control group x100; smaller value = glucosylceramide lowering

SMILES	activity at 10 µM
Cc1cn(C)c(=O)c2c(C(=O)N3CCC(Oc4ccc(C(F)(F)F)cc4)CC3)cn(C)c12 [Example 190, 1,5,7-trimethyl-3-((4-(4-(trifluoromethyl)phenoxy)piperidin-1-yl)carbonyl)-1,5-dihydro-4H-pyrrolo[3,2-c]pyridin-4-one]	29%
Cc1cn(C)c(=O)c2c(C(=O)N3C[C@H]4C[C@@]4(c4ccc(Cl)c(Cl)c4)C3)cn(C)c12 [Example 205, 3-(((1R,5S)-1-(3,4-dichlorophenyl)-3-azabicyclo[3.1.0]hex-3-yl)carbonyl)-1,5,7-trimethyl-1,5-dihydro-4H-pyrrolo[3,2-c]pyridin-4-one]	62%
Cc1cn(C)c(=O)c2c(C(=O)N3C[C@@H]4C[C@]4(c4ccc(Cl)c(Cl)c4)C3)cn(C)c12 [Example 206, 3-(((1S,5R)-1-(3,4-dichlorophenyl)-3-azabicyclo[3.1.0]hex-3-yl)carbonyl)-1,5,7-trimethyl-1,5-dihydro-4H-pyrrolo[3,2-c]pyridin-4-one]	49%
Cc1cn(C)c(=O)c2c(C(=O)NCc3ccc(-c4ccc(Cl)cc4)s3)cn(C)c12 [Example 217, N-((5-(4-chlorophenyl)-2-thienyl)methyl)-1,5,7-trimethyl-4-oxo-4,5-dihydro-1H-pyrrolo[3,2-c]pyridine-3-carboxamide]	64%
Cc1cn(C)c(=O)c2c(C(=O)NC(C)(C)c3ccccc3)cn(C)c12 [Example 219, 1,5,7-trimethyl-4-oxo-N-(2-phenylpropan-2-yl)-4,5-dihydro-1H-pyrrolo[3,2-c]pyridine-3-carboxamide]	63%
Cc1cn(C)c(=O)c2c(C(=O)NC(C)(C)c3ccc(Cl)cc3)cn(C)c12 [Example 221, N-(2-(4-chlorophenyl)propan-2-yl)-1,5,7-trimethyl-4-oxo-4,5-dihydro-1H-pyrrolo[3,2-c]pyridine-3-carboxamide]	44%
Cc1cn(C)c(=O)c2c(C(=O)NC3(c4cccc(Cl)c4)CCC3)cn(C)c12 [Example 227, N-(1-(3-chlorophenyl)cyclobutyl)-1,5,7-trimethyl-4-oxo-4,5-dihydro-1H-pyrrolo[3,2-c]pyridine-3-carboxamide]	59%
Cc1cn(C)c(=O)c2c(C(=O)NC3(c4ccc(Cl)cc4)CCC3)cn(C)c12 [Example 228, N-(1-(4-chlorophenyl)cyclobutyl)-1,5,7-trimethyl-4-oxo-4,5-dihydro-1H-pyrrolo[3,2-c]pyridine-3-carboxamide]	43%
Cc1cn(C)c(=O)c2c(C(=O)Nc3cccc(OCc4ccccc4)c3)cn(C)c12 [Example 231, N-(3-(benzyloxy)phenyl)-1,5,7-trimethyl-4-oxo-4,5-dihydro-1H-pyrrolo[3,2-c]pyridine-3-carboxamide]	59%
Cc1cn(C)c(=O)c2c(C(=O)N3CCC(c4ccc(Cl)cc4)CC3)cn(C)c12 [Example 258, 3-((4-(4-chlorophenyl)piperidin-1-yl)carbonyl)-1,5,7-trimethyl-1,5-dihydro-4H-pyrrolo[3,2-c]pyridin-4-one]	64%
Cc1cn(C)c(=O)c2c(C(=O)N3CC4CC4(c4ccc5ccccc5c4)C3)cn(C)c12 (stereo not drawn) [Example 261, 1,5,7-trimethyl-3-((1-(2-naphthyl)-3-azabicyclo[3.1.0]hex-3-yl)carbonyl)-1,5-dihydro-4H-pyrrolo[3,2-c]pyridin-4-one]	65%
Cc1cn(C)c(=O)c2c(C(=O)N3CC4CC4(c4cccc5ccccc45)C3)cn(C)c12 (stereo not drawn) [Example 262, 1,5,7-trimethyl-3-((1-(1-naphthyl)-3-azabicyclo[3.1.0]hex-3-yl)carbonyl)-1,5-dihydro-4H-pyrrolo[3,2-c]pyridin-4-one]	51%
CCCCO[C@H]1CC[C@H](NC(=O)c2nn(C)c3c(C)cn(C)c(=O)c23)CC1 [Example 277, N-(trans-4-butoxycyclohexyl)-1,5,7-trimethyl-4-oxo-4,5-dihydro-1H-pyrazolo[4,3-c]pyridine-3-carboxamide]	77%
Cc1cn(C)c(=O)c2c(C(=O)Nc3ccccc3OCc3ccccc3)n(C)nc12 [Example 282, N-(2-(benzyloxy)phenyl)-2,5,7-trimethyl-4-oxo-4,5-dihydro-2H-pyrazolo[4,3-c]pyridine-3-carboxamide]	66%
CCCCO[C@H]1CC[C@H](NC(=O)c2cnn3c(C)cn(C)c(=O)c23)CC1 [Example 283, N-(trans-4-butoxycyclohexyl)-5,7-dimethyl-4-oxo-4,5-dihydropyrazolo[1,5-a]pyrazine-3-carboxamide]	75%
Cc1cn(C)c(=O)c2c(C(=O)NCc3noc(-c4ccc(Cl)cc4)n3)cnn12 [Example 286, N-((5-(4-chlorophenyl)-1,2,4-oxadiazol-3-yl)methyl)-5,7-dimethyl-4-oxo-4,5-dihydropyrazolo[1,5-a]pyrazine-3-carboxamide]	67%
Cc1cn(C)c(=O)c2c(C(=O)N3CCC(Oc4ccc(OC(F)(F)F)cc4)CC3)cn(C)c12 [Example 288, 1,5,7-trimethyl-3-((4-(4-(trifluoromethoxy)phenoxy)piperidin-1-yl)carbonyl)-1,5-dihydro-4H-pyrrolo[3,2-c]pyridin-4-one]	27%
Cn1cc(C(=O)Nc2ccc(N3CCOCC3)cc2)c2c(=O)n(CC#N)ccc21 [Example 292, 5-(cyanomethyl)-1-methyl-N-(4-(morpholin-4-yl)phenyl)-4-oxo-4,5-dihydro-1H-pyrrolo[3,2-c]pyridine-3-carboxamide]	89%
COc1ccccc1-n1ccc2c(c(C(=O)Nc3ccc(N4CCOCC4)cc3)cn2C)c1=O [Example 293, 5-(2-methoxyphenyl)-1-methyl-N-(4-(morpholin-4-yl)phenyl)-4-oxo-4,5-dihydro-1H-pyrrolo[3,2-c]pyridine-3-carboxamide]	52%
Cn1cc(C(=O)Nc2ccc(N3CCOCC3)cc2)c2c(=O)n(-c3ccccc3OCC(F)(F)F)ccc21 [Example 294, 1-methyl-N-(4-(morpholin-4-yl)phenyl)-4-oxo-5-(2-(2,2,2-trifluoroethoxy)phenyl)-4,5-dihydro-1H-pyrrolo[3,2-c]pyridine-3-carboxamide]	36%
COc1cc(F)ccc1-n1ccc2c(c(C(=O)Nc3ccc(N4CCOCC4)cc3)cn2C)c1=O [Example 295, 5-(4-fluoro-2-methoxyphenyl)-1-methyl-N-(4-(morpholin-4-yl)phenyl)-4-oxo-4,5-dihydro-1H-pyrrolo[3,2-c]pyridine-3-carboxamide]	66%
Cn1cc(C(=O)NC(C)(C)c2ccc(Cl)cc2)c2c(=O)n(CC#N)ccc21 [Example 296, N-(2-(4-chlorophenyl)propan-2-yl)-5-(cyanomethyl)-1-methyl-4-oxo-4,5-dihydro-1H-pyrrolo[3,2-c]pyridine-3-carboxamide]	52%
Cc1cn(C)c(=O)c2c(C(=O)N3CCC(Oc4ccc(OC(F)(F)F)cc4)CC3)cnn12 [Example 303, 5,7-dimethyl-3-((4-(4-(trifluoromethoxy)phenoxy)piperidin-1-yl)carbonyl)pyrazolo[1,5-a]pyrazin-4(5H)-one]	60%
Cc1cn(C)c(=O)c2c(C(=O)N3CC4CC4(c4ccc(Cl)cc4)C3)cnn12 (stereo not drawn) [Example 304, 3-((1-(4-chlorophenyl)-3-azabicyclo[3.1.0]hex-3-yl)carbonyl)-5,7-dimethylpyrazolo[1,5-a]pyrazin-4(5H)-one]	64%
Cc1cn(C)c(=O)c2c(C(=O)NC(C)(C)c3ccc(Cl)cc3)cnn12 [Example 306, N-(2-(4-chlorophenyl)propan-2-yl)-5,7-dimethyl-4-oxo-4,5-dihydropyrazolo[1,5-a]pyrazine-3-carboxamide]	51%
